For three compounds, IC50 results are on record in patent publication US10300109B2, “Peptidomimetic macrocycles” (AILERON Therapeutics, Inc., priority 2009, dated 2019).

The experiment concerns the target T1, Beta-Catenin (aa 134-668) (Homo sapiens, UniProt P35222).
T1 construct: Beta-Catenin (aa 134-668, 59 KD)
T1 sequence (P35222 134-668): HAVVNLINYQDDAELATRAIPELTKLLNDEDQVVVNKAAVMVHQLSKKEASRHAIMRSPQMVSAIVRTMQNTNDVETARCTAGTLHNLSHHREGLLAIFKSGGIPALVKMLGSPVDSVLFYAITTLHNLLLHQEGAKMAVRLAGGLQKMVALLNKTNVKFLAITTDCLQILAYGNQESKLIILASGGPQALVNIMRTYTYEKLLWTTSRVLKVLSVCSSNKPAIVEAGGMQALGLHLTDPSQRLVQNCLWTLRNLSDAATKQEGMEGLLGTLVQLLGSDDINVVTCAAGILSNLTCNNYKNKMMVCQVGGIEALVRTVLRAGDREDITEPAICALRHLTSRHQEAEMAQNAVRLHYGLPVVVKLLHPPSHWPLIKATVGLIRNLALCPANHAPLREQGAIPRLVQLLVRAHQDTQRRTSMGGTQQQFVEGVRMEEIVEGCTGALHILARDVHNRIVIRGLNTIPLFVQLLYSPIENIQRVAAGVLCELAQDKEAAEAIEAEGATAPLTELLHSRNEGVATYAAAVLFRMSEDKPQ
Kind of experiment: TCF/Beta-Catenin competitive fluorescence polarization assay. It counts as binding. The settings on record: competition with FAM-labelled linear probe for 6x His-tagged Beta-Catenin, room temperature, three hours. Here is the method: The following experiments are performed at room temperature unless otherwise noted. First, an assay buffer is prepared composed of 25 mM Tris-Hcl pH 7.5, 200 mM Sodium Chloride, and 5 mM CHAPS. Next, 1M DTT is added to assay buffer to a final concentration of 2 mM. […] Forty μl of this protein stock is added to all but six wells of a 96 well plate (which will serve as the free peptide and Blank). Test competitor peptides are diluted from 1 mM DMSO stocks to 2× working stocks in assay buffer. Further dilutions are made in assay buffer-DMSO as to maintain a constant DMSO concentration in all wells. […] As a benchmark, a linear, non-crosslinked peptide competitor is prepared as above but with a working concentration range of 13-0.7 μM. Fifty μl of the competitor 2× stocks are added to the 40 μl of protein solution previously transferred into the assay 96 well plate. Next, a 10× stock of the fluorescent probe is prepared. The probe is identical to the linear benchmark peptide except for the n-terminal conjugation of a FAM flourophore with Beta-Alanine spacer. A 1 mM DMSO stock of the probe is serially diluted to a final concentration of 25 nM (10×) and 10 μl of this stock is added to all wells except for those that will serve as the blank. The assay plate is stored in the dark and the reaction is allowed to run at room temperature for three hours. The reaction is then read on a Biotek Synergy 2 with the following settings: 100 ms delay, 40 measurements per well, with excitation filters of […], and emission filters of […]. Data is then analyzed in Graphpad Prism.
(In general: Fluorescence polarisation rises when a labelled molecule tumbles more slowly, as on binding a larger partner.)

Where [1] appears, read: read-out: Binding Activity: IC50.

SMILES strings stand for the structures. Read-outs that look alike come from different tables or passages of the source. Where a SMILES comes first, the peptide text is derived from it. Bridges are numbered along the chain shown (N, C = ends). [ ]: non-standard residue; d: D form. S5 = C=CCCC[C@](C)(N)C(=O)O

As to `CC(=O)N[C@@H](CO)C(=O)N[C@@H](C)C(=O)N[C@@H](CCC(=O)O)C(=O)N[C@@H](CCCNC(=N)N)C(=O)N[C@@H](CC(=O)O)C(=O)N[C@@H](CC(C)C)C(=O)N[C@@H](C)C(=O)N[C@@H](CC(=O)O)C(=O)N[C@H](C(=O)N[C@@H](CCCCN)C(=O)N[C@@]1(C)CCCC=CCCC[C@@](C)(C(=O)N[C@@H](CCC(=O)O)C(=O)N[C@@H](CO)C(=O)N[C@@H](CCC(=O)O)C(=O)N[C@@H](CCCCN)C(=O)N[C@@H](CCCNC(=N)N)C(N)=O)NC(=O)[C@H](C(C)C)NC(=O)[C@H](CC(C)C)NC(=O)[C@H](CO)NC1=O)C(C)C` [SP12, Ac-SAERDLADVK$SLV$ESEKR-NH2] (Ac-SAERDLADVK[S5]SLV[S5]ESEKR-NH2; staple 11-15), under setting [1], the IC50 (commonly the midpoint of a concentration-inhibition curve) turned out to be 84900 nM. For the compound `CC[C@H](C)[C@H](NC(=O)[C@H](CC(C)C)NC(=O)[C@H](CCC(=O)O)NC(=O)[C@H](CC(=O)O)NC(=O)[C@H](CC(N)=O)NC(=O)[C@H](C)NC(=O)CNC(=O)[C@H](CC(C)C)NC(C)=O)C(=O)N[C@@H](CO)C(=O)N[C@@H](Cc1ccccc1)C(=O)N[C@@H](CCCCN)C(=O)N[C@@]1(C)CCCC=CCCC[C@@](C)(C(=O)N[C@@H](CCC(=O)O)C(=O)N[C@@H](CCC(=O)O)C(=O)N[C@@H](CCCCN)C(=O)N[C@@H](CO)C(=O)N[C@@H](CO)C(=O)N[C@@H](CC(N)=O)C(=O)N[C@@H](CC(N)=O)C(=O)N[C@@H](CO)C(=O)N[C@@H](CO)C(=O)N[C@@H](C)C(=O)N[C@@H](CCC(=O)O)C(=O)N[C@@H](CCCNC(=N)N)C(=O)N[C@@H](CC(=O)O)C(=O)N[C@@H](CC(C)C)C(=O)N[C@@H](C)C(=O)N[C@@H](CC(=O)O)C(=O)N[C@H](C(=O)N[C@@H](CCCCN)C(=O)N[C@@H](CO)C(=O)N[C@@H](CO)C(=O)N[C@@H](CC(C)C)C(=O)N[C@H](C(N)=O)C(C)C)C(C)C)NC(=O)[C@H](CCC(=O)O)NC(=O)CNC(=O)[C@H](CCC(=O)O)NC1=O` [SP27] (Ac-LGANDELISFK[S5]EGE[S5]EEKSSNNSSAERDLADVKSSLV-NH2; staple 12-16), the IC50 (Binding Activity: IC50 (nM)) was determined as 158 nM. In the case of `CC[C@H](C)[C@H](NC(=O)[C@H](CC(C)C)NC(=O)[C@H](CCC(=O)O)NC(=O)[C@H](CC(=O)O)NC(=O)[C@H](CC(N)=O)NC(=O)[C@H](C)NC(=O)CNC(=O)[C@H](CC(C)C)NC(C)=O)C(=O)N[C@@H](CO)C(=O)N[C@@H](Cc1ccccc1)C(=O)N[C@@H](CCCCN)C(=O)N[C@@H](CC(=O)O)C(=O)N[C@@H](CCC(=O)O)C(=O)NCC(=O)N[C@@]1(C)CCCC=CCCC[C@@](C)(C(=O)N[C@@H](CO)C(=O)N[C@@H](CO)C(=O)N[C@@H](CC(N)=O)C(=O)N[C@@H](CC(N)=O)C(=O)N[C@@H](CO)C(=O)N[C@@H](CO)C(=O)N[C@@H](C)C(=O)N[C@@H](CCC(=O)O)C(=O)N[C@@H](CCCNC(=N)N)C(=O)N[C@@H](CC(=O)O)C(=O)N[C@@H](CC(C)C)C(=O)N[C@@H](C)C(=O)N[C@@H](CC(=O)O)C(=O)N[C@H](C(=O)N[C@@H](CCCCN)C(=O)N[C@@H](CO)C(=O)N[C@@H](CO)C(=O)N[C@@H](CC(C)C)C(=O)N[C@H](C(N)=O)C(C)C)C(C)C)NC(=O)[C@H](CCC(=O)O)NC(=O)[C@H](CCC(=O)O)NC(=O)[C@H](CCC(N)=O)NC1=O` [SP28, Ac-LGANDELISFKDEG$QEE$SSNNSSAERDLADVKSSLV-NH2] (Ac-LGANDELISFKDEG[S5]QEE[S5]SSNNSSAERDLADVKSSLV-NH2; staple 15-19), under setting [1], the IC50 worked out at 158 nM.
